The subject of one data set is Plutella xylostella. The data set can be described thus: Example D: Plutella Test (7:1). The format is in vivo. Particulars: concentration of 1000 ppm. The protocol:
(§1) To produce a suitable preparation of active compound, 1 part by weight of active compound is mixed with the stated amounts of solvent and emulsifier, and the concentrate is diluted with emulsifier-containing water to the desired concentration.
Cabbage leaves (Brassica oleracea) are treated by being dipped into the preparation of active compound of the desired concentration and are populated with caterpillars of the diamond back moth (Plutella xylostella) while the leaves are still moist.
After the desired period of time, the kill in % is determined. 100% means that all caterpillars have been killed; 0% means that none of the caterpillars have been killed.

A further data set deals with Nephotettix cincticeps. The data set is described as follows: Example F: Nephotettix Test (7:1). Particulars: concentration of 1000 ppm. The format is in vivo. The protocol:
as §1
Rice seedlings (Oryza sativa) are treated by being dipped into the preparation of active compound of the desired concentration and are populated with the green rice leaf hopper (Nephotettix cincticeps) while the leaves are still moist.
After the desired period of time, the kill in % is determined. 100% means that all leaf hoppers have been killed; 0% means that none of the leaf hoppers have been killed.

The subject of the next data set is Lolium multiflorum. The data set is described as follows: Example V 2: Herbicidal Post-Emergence Action. It counts as in vivo. The following applies: greenhouse, 320 g of a.i./ha, about 3 weeks. The protocol: (§2) Seeds of monocotyledonous and dicotyledonous weed and crop plants are placed into sandy loam in wood fibre pots, covered with soil and cultivated in a greenhouse under good growth conditions. 2-3 weeks after sowing, the test plants are treated at the one-leaf stage. The test compounds, formulated as wettable powders (WP), are then, in various dosages with a water application rate of 600 l/ha (converted), with 0.2% of wetting agent added, sprayed onto the green parts of the plants. After the test plants have been kept in the greenhouse under optimum growth conditions for about 3 weeks, the effect of the preparations is rated visually in comparison to untreated controls (herbicidal effect in percent (%): 100% effect=the plants have died, 0% effect=like control plants).

For a further data set, the system named is Setaria viridis. The data set is described as follows: Example V 2: Herbicidal Post-Emergence Action. The format is in vivo. Particulars: greenhouse, 320 g of a.i./ha, about 3 weeks. The protocol: as §2
Data set [1] relates to monocotyledonous and dicotyledonous weed and crop plants. The data set can be described thus: Example V 2: Herbicidal Post-Emergence Action. It counts as in vivo. Particulars: greenhouse, 320 g of a.i./ha, about 3 weeks. As to the method:
as §2

A further data set deals with Echinocloa crus-galli. The data set is described as follows: Example V 2: Herbicidal Post-Emergence Action. The format is in vivo. Particulars: greenhouse, 320 g of a.i./ha, about 3 weeks. As to the method: as §2
The next data set has as its system Test plants. The data set can be described thus: Example U: Pre-emergence Test. The format is in vivo. The following applies: greenhouse, 250 g of a.i./ha, after three weeks. The protocol:
To produce a suitable preparation of active compound, 1 part by weight of active compound is mixed with the stated amount of solvent, the stated amount of emulsifier is added and the concentrate is diluted with water to the desired concentration.
Seeds of the test plants are sown in normal soil. After about 24 hours, the soil is sprayed with the preparation of active compound such that the particular amounts of active compound desired are applied per unit area. The concentration of the spray liquor is chosen such that the particular amounts of active compound desired are applied in 1000 l of water/ha.
After three weeks, the degree of damage to the plants is rated in % damage in comparison to the development of the untreated control.
The figures denote: • 0%=no effect (like untreated control) • 100%=total destruction

Data set [2] has as its system Meloidogyne incognita. The data set can be described thus: Example H: Meloidogyne Test (7:1). The format is in vivo. The following applies: concentration of 20 ppm. The protocol:
(§3) To produce a suitable preparation of active compound, 1 part by weight of active compound is mixed with the stated amounts of solvent and emulsifier, and the concentrate is diluted with water to the desired concentration.
(§4) Vessels are filled with sand, solution of active compound, Meloidogyne incognita egg/larvae suspension and lettuce seeds. The lettuce seeds germinate and the plants develop. On the roots, galls are formed.
(§5) After the desired period of time, the nematicidal activity is determined in % by the formation of galls. 100% means that no galls have been found; 0% means that the number of galls on the treated plants corresponds to that of the untreated control.

Data set [3] concerns Meloidogyne incognita. The data set is described as follows: Example K: Meloidogyne Test. The format is in vivo. Particulars: concentration of 20 ppm. As to the method:
as §3, §4, §5

Data set [4] concerns Meloidogyne incognita. The data set can be described thus: Example P: Meloidogyne Test (spray treatment). It counts as in vivo. The following applies: concentration of 20 ppm. As to the method:
To produce a suitable preparation of active compound, 1 part by weight of active compound is mixed with the stated amount of solvent, and the concentrate is diluted with water to the desired concentration.
as §4, §5

The next data set relates to cereal crop plants. The data set is described as follows: Profiling tests, herbicidal post-emergence action with safeners: container trials with cereal in a greenhouse, Mefenpyr 1 day prior to herbicide application. Particulars: in vivo. As to the method:
Test Description for Profiling Tests
2. Herbicidal Post-Emergence Action
Seeds of monocotyledonous and dicotyledonous weed and crop plants are placed into sandy loam in wood fibre pots or in plastic pots, covered with soil and cultivated in a greenhouse, during the vegetation period also outdoors outside of the greenhouse, under good growth conditions. 2-3 weeks after sowing, the test plants are treated at the one- to three-leaf stage. The test compounds, formulated as wettable powders (WP) or emulsifiable concentrates (EC) are, in various dosages with a water application rate of 300 l/ha (converted), with wetting agent (0.2 to 0.3%) added, sprayed onto the plants and the surface of the soil. […] after the treatment of the test plants, the effect of the preparations is rated visually in comparison to untreated controls (herbicidal effect in percent (%): 100% effect=the plants have died, 0% effect=like control plants). […]

The subject of data set [5] is Phaedon cochleariae. The data set is described as follows: Example N: Phaedon Test (spray treatment). It counts as in vivo. The following applies: application rate 500 g/ha. The protocol:
[table] To produce a suitable preparation of active compound, 1 part by weight of active compound is mixed with the stated amounts of solvents and emulsifier, and the concentrate is diluted with emulsifier-containing water to the desired concentration. Discs of Chinese cabbage (Brassica pekinensis) are sprayed with a preparation of active compound of the desired concentration and, after drying, populated with larvae of the mustard beetle (Phaedon cochleariae).

For data set [6], the system named is Phaedon cochleariae. The data set can be described thus: Example M: Phaedon cochleariae Larvae Test. The following applies: concentration of 100 ppm. It counts as in vivo. The protocol:
[table] To produce a suitable preparation of active compound, 1 part by weight of active compound is mixed with the stated amounts of solvent and emulsifier, and the concentrate is diluted with emulsifier-containing water to the desired concentration. Cabbage leaves (Brassica oleracea) are treated by being dipped into the preparation of active compound of the desired concentration and are populated with larvae of the mustard beetle (Phaedon cochleariae) while the leaves are still moist.

Molecules are shown by their SMILES.

In the case of `Cc1cc(C)c(C2=C(O)C3(CCC4(CC3)OCCO4)OC2=O)c(C)c1` [Ex. I-2-a-2], the “activity (kill in %)” value with Plutella xylostella and in the data set with Nephotettix cincticeps was 100% throughout. Moreover, the “herbicidal effect, Lolium” value in the data set on Lolium multiflorum turned out to be 90%. Besides, the “herbicidal effect, Setaria” value in the data set with Setaria viridis is 100%. Also, in data set [1], the “herbicidal effect, Amaranthus” value stood at 60%. Besides, in data set [1], the “herbicidal effect, Sinapis” value is 70%. Besides, in the data set on Echinocloa crus-galli, the “herbicidal effect, Echinochloa” value came to 80%.
Turning to `Cc1cc(Cl)cc(C)c1C1=C(O)C2(CCC3(CC2)OCCO3)NC1=O` [Ex. I-1-a-4], in the data set on Test plants (sub-table 1), the “damage, Amaranthus” value was determined as 95%; the “damage, Echinochloa” value came to 100%; the “damage, Galium” value stood at 70%; the “damage, Setaria” value is reported as 100%. The “damage, Sinapis” value in the data set with Test plants (sub-table 1) is given as 70%. The “nematicidal activity in % (formation of galls)” value (“nematicidal activity in %” for short) in the data set on Meloidogyne incognita [2] came to 95%.
As for `Cc1cc(C)c(C2=C(O)C3(CCC4(CC3)OCCO4)NC2=O)c(C)c1` [Ex. I-1-a-2], the “activity (kill in %)” value with Plutella xylostella and with Nephotettix cincticeps was 100% each time. Also, the “herbicidal effect, Lolium” value in the data set with Lolium multiflorum came to 70%. Moreover, the “herbicidal effect, Setaria” value with Setaria viridis was 90%. In data set [1], the “herbicidal effect, Sinapis” value was 60%. Further, the “herbicidal effect, Echinochloa” value with Echinocloa crus-galli was determined as 80%.
For `Cc1ccc(C)c(C2=C(O)C3(CCC4(CC3)OCCCO4)NC2=O)c1` [Ex. I-1-a-12], in the data set with Meloidogyne incognita [3], the “nematicidal activity in %” value turned out to be 80%.
As to `Cc1cc(Br)cc(C)c1C1=C(O)C2(CCC3(CC2)OCCCO3)NC1=O` [Ex. I-1-a-19], the “herbicidal effect, Lolium” value in the data set on Lolium multiflorum is 90%. For the same compound, the “herbicidal effect, Setaria” value in the data set with Setaria viridis was determined as 90%. In addition, in [1], the “herbicidal effect, Sinapis” value turned out to be 70%. For the same compound, the “herbicidal effect, Echinochloa” value with Echinocloa crus-galli is listed as 90%.
On to `O=C1NC2(CCC3(CC2)OCCCO3)C(O)=C1c1cc(-c2ccc(Cl)cc2)ccc1Cl` [Ex. I-1-a-15], for which the “nematicidal activity in %” value in the data set with Meloidogyne incognita [4] was found to be 100%. In the data set on Test plants (crop plant, sub-table 3), the “damage, Sugar beet” value is on record as 0%. Besides, in the data set with Test plants (sub-table 3), the “damage, Alopecurus” value turned out to be 95%; the “damage, Avena fatua” value is listed as 80%; the “damage, Echinochloa” value was found to be 99%; the “damage, Setaria” value is recorded as 70%.
On to `Cc1cc(Cl)cc(C)c1C1=C(OC(=O)C(C)C)C2(CCC3(CC2)OCC(CCl)O3)OC1=O` (stereo not drawn) [Ex. I-2-b-3], for which, in the data set with Lolium multiflorum, the “herbicidal effect, Lolium” value was 100%. In addition, the “herbicidal effect, Setaria” value in the data set on Setaria viridis is 90%. Further, the “herbicidal effect, Echinochloa” value with Echinocloa crus-galli was found to be 80%.
Turning to `Cc1cc(C)c(C2=C(O)C3(CCC4(CC3)OC(C)CC(C)O4)NC2=O)c(C)c1` (mixture of isomers) [Ex. I-1-a-21], the “herbicidal effect, Lolium” value in the data set on Lolium multiflorum was 80%. Also, the “herbicidal effect, Setaria” value in the data set with Setaria viridis is on record as 90%. Moreover, the “herbicidal effect, Sinapis” value in data set [1] turned out to be 70%. Besides, the “herbicidal effect, Echinochloa” value in the data set on Echinocloa crus-galli amounted to 80%.
For `CCOC(=O)OC1=C(c2c(CC)cc(Cl)cc2OC)C(=O)NC12CCC1(CC2)OCCO1` [Ex. I-1-c-25], the “Summer barley observed (%)” value in the data set with cereal crop plants worked out at 50%.
Turning to `Cc1cc(Cl)cc(C)c1C1=C(O)C2(CCC3(CC2)OCCCO3)OC1=O` [Ex. I-2-a-6], the “herbicidal effect, Lolium” value with Lolium multiflorum turned out to be 80%. In addition, in the data set on Setaria viridis, the “herbicidal effect, Setaria” value is recorded as 80%. For the same compound, the “herbicidal effect, Sinapis” value in data set [1] was 60%. Besides, in the data set with Echinocloa crus-galli, the “herbicidal effect, Echinochloa” value was determined as 60%.
Take `CCOC(=O)OC1=C(c2c(C)cc(C)cc2C)C(=O)NC12CCC1(CC2)OCC(C)O1` (mixture of isomers) [Ex. I-1-c-6]: the “herbicidal effect, Lolium” value with Lolium multiflorum amounted to 90%. In addition, the “herbicidal effect, Setaria” value in the data set on Setaria viridis stood at 90%. Further, in data set [1], the “herbicidal effect, Sinapis” value came to 60%. Besides, the “herbicidal effect, Echinochloa” value in the data set on Echinocloa crus-galli amounted to 80%. The same compound returned an activity in % with Phaedon cochleariae [5] of 100%.
Turning to `Cc1cc(C)c(C2=C(O)C3(CCC4(CC3)OCC(C)(C)CO4)NC2=O)c(C)c1` [Ex. I-1-a-23], the “activity (kill in %)” value in the data set on Phaedon cochleariae [6] is 100%.
As to `Cc1cc(C)c(C2=C(O)C3(CCC4(CC3)OC(C)C(C)O4)NC2=O)c(C)c1` (mixture of isomers) [Ex. I-1-a-7], the “herbicidal effect, Lolium” value in the data set on Lolium multiflorum was determined as 80%. In addition, the “herbicidal effect, Setaria” value with Setaria viridis is given as 80%. The “herbicidal effect, Sinapis” value in data set [1] is recorded as 60%. In addition, the “herbicidal effect, Echinochloa” value in the data set with Echinocloa crus-galli was 60%. This compound came in with an activity in % in the data set with Phaedon cochleariae [5] of 100%.
Consider `Cc1cc(C)c(C2=C(O)C3(CCC4(CC3)OCCCO4)NC2=O)c(C)c1` [Ex. I-1-a-18], for which the “herbicidal effect, Lolium” value in the data set with Lolium multiflorum was 80%. In the data set with Setaria viridis, the “herbicidal effect, Setaria” value turned out to be 100%. In addition, in the data set on Echinocloa crus-galli, the “herbicidal effect, Echinochloa” value is 90%. In the data set on Phaedon cochleariae [5], this compound yielded an activity in % of 100%.
In the case of `Cc1cc(Br)cc(C)c1C1=C(O)C2(CCC3(CC2)OCCO3)OC1=O` [Ex. I-2-a-5], the “herbicidal effect, Lolium” value with Lolium multiflorum was found to be 100%. In addition, the “herbicidal effect, Setaria” value in the data set with Setaria viridis stood at 70%. Also, in data set [1], the “herbicidal effect, Amaranthus” value is recorded as 70% and the “herbicidal effect, Stellaria” value stood at 60%.
For `Cc1cc(C)c(C2=C(OC(=O)C(C)(C)C)C3(CCC4(CC3)OCCO4)OC2=O)c(C)c1` [Ex. I-2-b-2], the “activity (kill in %)” value with Plutella xylostella and in the data set with Nephotettix cincticeps was 100% throughout.

Values taken from patent US7897543B2, “Spiroketal-substituted cyclic ketoenols” (Bayer CropScience AG, priority 2005, dated 2011).
